Calls of active or inactive are those of the source. The rule behind the calls is not given here.
Legend:
[1] = tested on: Mus musculus; experiment: Hypouricemic activity in potassium oxonate-induced hyperuricemic Kunming mouse model assessed as decrease in serum XOD level at 1 mg/kg, IG pre-administered via gavage twice daily for 5 times followed by potassium oxonate injection for 1 hrs prior to last dose; format: functional, organism-based; details: time 5.0 day
[2] = Toxicity in Kunming mouse assessed as decrease in serum uric acid level at 1 mg/kg; format: organism-based; details: in vivo
[3] = organism: Homo sapiens; experiment: Inhibition of uricase (unknown origin) using uric acid as substrate at 112.5 mg/L preincubated with compounds for 15 mins followed by uric acid addition
[4] = tested on: Mus musculus; experiment: (§1) Hypouricemic activity in potassium oxonate-induced hyperuricemic Kunming mouse model assessed as decrease in serum uric acid level at 5 mg/kg, IG pre-administered via gavage twice daily for 5 times followed by potassium oxonate injection for 1 hrs prior to last dose by phosphotungstic acid method; format: functional; details: for Activity: time 5.0 day
[5] = tested on: Rattus norvegicus; experiment: (§2) Anti-hyperuricemic activity against potassium oxonate-induced hyperuricemic Sprague-Dawley rat model assessed as glomerular load of urate measured per body surface area of 0.0311 m2 at 12.5 mg/kg, po pre-administered via gavage twice daily for 5 times followed by potassium oxonate injection for 1 hrs prior to last dose and measured after 3 hrs; format: functional; details: time 123 hrs
[6] = tested on: Rattus norvegicus; experiment: (§3) Anti-hyperuricemic activity against potassium oxonate-induced hyperuricemic Sprague-Dawley rat model assessed as serum urate level at 12.5 mg/kg, po pre-administered via gavage twice daily for 5 times followed by potassium oxonate injection for 1 hrs prior to last dose and measured after 3 hrs; format: functional; details: time 123 hrs
[7] = tested on: Rattus norvegicus; experiment: Anti-hyperuricemic activity against potassium oxonate-induced hyperuricemic Sprague-Dawley rat model assessed as urine volume at 12.5 mg/kg, po pre-administered via gavage twice daily for 5 times followed by potassium oxonate injection for 1 hrs prior to last dose and measured after 3 hrs; format: functional; details: time 123 hrs
[8] = tested on: Rattus norvegicus; experiment: as §2, with “clearance” for “glomerular load”, “creatinine” for “urate”; format: functional; details: time 123 hrs
[9] = tested on: Rattus norvegicus; experiment: Anti-hyperuricemic activity against potassium oxonate-induced hyperuricemic Sprague-Dawley rat model assessed as fractional excretion of urate at 12.5 mg/kg, po pre-administered via gavage twice daily for 5 times followed by potassium oxonate injection for 1 hrs prior to last dose and measured after 3 hrs relative to control; format: functional; details: time 123 hrs
[10] = tested on: Rattus norvegicus; experiment: as §2, with “excretion” for “glomerular load”, “urate per volume of glomerular filtration” for “urate”; format: functional; details: time 123 hrs
[11] = tested on: Rattus norvegicus; experiment: (§4) Anti-hyperuricemic activity against potassium oxonate-induced hyperuricemic Sprague-Dawley rat model assessed as urinary urate level at 12.5 mg/kg, po pre-administered via gavage twice daily for 5 times followed by potassium oxonate injection for 1 hrs prior to last dose and measured after 3 hrs; format: functional; details: time 123 hrs
[12] = tested on: Rattus norvegicus; experiment: Anti-hyperuricemic activity against potassium oxonate-induced hyperuricemic Sprague-Dawley rat model assessed as serum creatinine level at 12.5 mg/kg, po pre-administered via gavage twice daily for 5 times followed by potassium oxonate injection for 1 hrs prior to last dose and measured after 3 hrs; format: functional; details: time 123 hrs
[13] = tested on: Rattus norvegicus; experiment: as §3, with “urea nitrogen” for “urate”; format: functional; details: time 123 hrs
[14] = tested on: Rattus norvegicus; experiment: as §2, with “clearance” for “glomerular load”; format: functional; details: time 123 hrs
[15] = tested on: Rattus norvegicus; experiment: as §4, with “creatinine” for “urate”; format: functional; details: time 123 hrs
[16] = tested on: Rattus norvegicus; experiment: Anti-hyperuricemic activity against potassium oxonate-induced hyperuricemic Sprague-Dawley rat model assessed as urinary urate at 12.5 mg/kg, po pre-administered via gavage twice daily for 5 times followed by potassium oxonate injection for 1 hrs prior to last dose and measured after 3 hrs; format: functional; details: time 123 hrs
[17] = tested on: Mus musculus; experiment: Anti-hyperouricemic activity in uric acid-induced hyperuricemic Kunming mouse model assessed as decrease in serum uric acid level at 25 mg/kg, IG pre-administered with uric acid for 30 mins followed by compound treatment and measured after 2 hrs by phosphotungstic acid method; format: functional, organism-based
[18] = biological target: Xanthine dehydrogenase/oxidase (Homo sapiens, UniProt P47989); experiment: Inhibition of XOD (unknown origin) using xanthine as substrate assessed as inhibition of uric acid generation at 0.54 mg/L preincubated for 15 mins followed by xanthine addition and measured by spectrophotometric analysis relative to control
Xanthine dehydrogenase/oxidase, sequence (P47989 whole entry): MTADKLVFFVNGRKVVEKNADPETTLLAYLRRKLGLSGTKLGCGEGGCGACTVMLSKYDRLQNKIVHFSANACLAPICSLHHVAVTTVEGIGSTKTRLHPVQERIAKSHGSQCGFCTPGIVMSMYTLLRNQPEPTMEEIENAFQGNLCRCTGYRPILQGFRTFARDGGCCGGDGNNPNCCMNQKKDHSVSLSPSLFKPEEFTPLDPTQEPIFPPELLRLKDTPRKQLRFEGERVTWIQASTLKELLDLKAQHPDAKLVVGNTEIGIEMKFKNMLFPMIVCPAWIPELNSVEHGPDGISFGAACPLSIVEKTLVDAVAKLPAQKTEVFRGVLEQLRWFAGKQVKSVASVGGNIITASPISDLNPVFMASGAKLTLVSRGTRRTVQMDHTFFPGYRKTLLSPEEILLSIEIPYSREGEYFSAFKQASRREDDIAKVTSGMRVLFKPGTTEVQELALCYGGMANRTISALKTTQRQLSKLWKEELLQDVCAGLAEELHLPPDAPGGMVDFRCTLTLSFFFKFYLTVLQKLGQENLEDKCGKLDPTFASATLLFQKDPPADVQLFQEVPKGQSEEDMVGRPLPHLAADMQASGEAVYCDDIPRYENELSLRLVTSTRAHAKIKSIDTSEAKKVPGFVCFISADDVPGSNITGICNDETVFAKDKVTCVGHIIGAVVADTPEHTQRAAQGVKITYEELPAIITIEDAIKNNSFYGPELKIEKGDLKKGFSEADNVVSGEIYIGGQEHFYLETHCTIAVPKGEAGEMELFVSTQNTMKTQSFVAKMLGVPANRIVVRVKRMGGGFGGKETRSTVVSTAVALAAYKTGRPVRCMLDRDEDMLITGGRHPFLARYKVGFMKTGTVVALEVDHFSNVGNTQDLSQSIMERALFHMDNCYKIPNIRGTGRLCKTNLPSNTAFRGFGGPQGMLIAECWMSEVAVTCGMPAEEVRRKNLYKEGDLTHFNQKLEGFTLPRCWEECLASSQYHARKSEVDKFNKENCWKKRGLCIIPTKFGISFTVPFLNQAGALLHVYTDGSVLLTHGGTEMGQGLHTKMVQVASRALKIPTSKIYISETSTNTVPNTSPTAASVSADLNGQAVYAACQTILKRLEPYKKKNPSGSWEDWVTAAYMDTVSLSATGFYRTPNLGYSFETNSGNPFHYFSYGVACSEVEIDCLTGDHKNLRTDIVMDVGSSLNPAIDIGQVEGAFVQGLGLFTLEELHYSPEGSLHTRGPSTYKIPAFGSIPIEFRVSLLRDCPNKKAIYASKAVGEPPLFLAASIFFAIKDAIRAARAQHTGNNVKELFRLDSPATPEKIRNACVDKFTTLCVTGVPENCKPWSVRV

[19] = tested on: Mus musculus; experiment: as §1, with “method relative to control” for “method”; format: functional; design: scale not given: the % may be the effect or the level left; details: time 5 day
[20] = tested on: Mus musculus; experiment: Hypouricemic activity in potassium oxonate-induced hyperuricemic Kunming mouse model assessed as serum XDH level at 10 mg/kg, IG pre-administered via gavage twice daily for 5 times followed by potassium oxonate injection for 1 hrs prior to last dose; format: functional; details: time 5 day
[21] = tested on: Mus musculus; experiment: Hypouricemic activity in potassium oxonate-induced hyperuricemic Kunming mouse model assessed as serum urate level at 10 mg/kg, IG pre-administered via gavage twice daily for 5 times followed by potassium oxonate injection for 1 hrs prior to last dose by phosphotungstic acid method; format: functional; details: time 5 day
[22] = tested on: Mus musculus; experiment: Hypouricemic activity in potassium oxonate-induced hyperuricemic Kunming mouse model assessed as serum XOD level at 10 mg/kg, IG pre-administered via gavage twice daily for 5 times followed by potassium oxonate injection for 1 hrs prior to last dose; format: functional; details: time 5 day

## Cc1nc(-c2ccc(OCC(C)C)c(C#N)c2)sc1C(=O)O [FEBUXOSTAT]
[1]
  Activity: Active
[2]
  Activity: Toxic

## O=C(O)c1nc(=O)[nH]c(=O)[nH]1
[3]
  inhibition: 96.5%

## COc1c(O)cc2oc3cc4c(c(O)c3c(=O)c2c1CC=C(C)C)C=CC(C)(C)O4
[4]
  Activity: inactive

## CCc1oc2ccccc2c1C(=O)c1cc(Br)c(O)c(Br)c1 [BENZBROMARONE]
[5]
  Activity: 3.8 µmol/min
[6]
  Activity: 258 µmol/L
[7]
  Activity: 4.6 mL
[8]
  Activity: 14.6 mL/min
[9]
  Activity: 66%
[10]
  Activity: 5.3 µmol/L
[11]
  Activity: 2.7 mmol/L
[12]
  Activity: 56.1 µmol/L
[13]
  Activity: 9.7 mmol/L
[14]
  Activity: 8.4 mL/min
[15]
  Activity: 1 mmol/L
[16]
  Activity: 392 µmol
[17]
  Activity: Active

## Oc1ncnc2[nH]ncc12 [ALLOPURINOL]
[18]
  inhibition at 0.54 µg/mL: 42.7%
[19]
  Activity: 64%
[20]
  Activity: 2.59 U/L
[21]
  Activity: 180.26 µmol/L
[4]; time 5 day
  serum uric acid level: 117.86 µmol/L
[22]
  Activity: 11.46 U/L

## CC(C)=CCc1c(O)cc2oc3cc(O)c(O)c(CC=C(C)C)c3c(=O)c2c1O
[4]
  Activity: inactive

Reference: ChEMBL document CHEMBL5226379, “Hypouricemic Actions of the Pericarp of Mangosteen in Vitro and in Vivo” (J Nat Prod, 2023)
